The record followed here is ChEMBL document CHEMBL3621141, “Discovery of indole-based tetraarylimidazoles as potent inhibitors of urease with low antilipoxygenase activity” (Eur J Med Chem, 2015).

Assay [1] in a line: Inhibition of soybean LOX using linoleic acid as substrate preincubated for 10 mins followed by substrate addition measured after 6 mins by spectrophotometric analysis. The arrangement: species or system Glycine max.
Assay [2] concerns the target Urease (Canavalia ensiformis) (UniProt P07374). The assay can be described thus: Inhibition of jack beans urease assessed as hydrolysis of urea into ammonia at 0.5 mM preincubated for 10 mins followed by urea addition measured after 10 mins by Berthelot assay.
A further assay deals with Urease (Canavalia ensiformis, UniProt P07374). Briefly: Inhibition of jack beans urease assessed as hydrolysis of urea into ammonia preincubated for 10 mins followed by urea addition measured after 10 mins by Berthelot assay.
Sequence of Urease (P07374 whole entry): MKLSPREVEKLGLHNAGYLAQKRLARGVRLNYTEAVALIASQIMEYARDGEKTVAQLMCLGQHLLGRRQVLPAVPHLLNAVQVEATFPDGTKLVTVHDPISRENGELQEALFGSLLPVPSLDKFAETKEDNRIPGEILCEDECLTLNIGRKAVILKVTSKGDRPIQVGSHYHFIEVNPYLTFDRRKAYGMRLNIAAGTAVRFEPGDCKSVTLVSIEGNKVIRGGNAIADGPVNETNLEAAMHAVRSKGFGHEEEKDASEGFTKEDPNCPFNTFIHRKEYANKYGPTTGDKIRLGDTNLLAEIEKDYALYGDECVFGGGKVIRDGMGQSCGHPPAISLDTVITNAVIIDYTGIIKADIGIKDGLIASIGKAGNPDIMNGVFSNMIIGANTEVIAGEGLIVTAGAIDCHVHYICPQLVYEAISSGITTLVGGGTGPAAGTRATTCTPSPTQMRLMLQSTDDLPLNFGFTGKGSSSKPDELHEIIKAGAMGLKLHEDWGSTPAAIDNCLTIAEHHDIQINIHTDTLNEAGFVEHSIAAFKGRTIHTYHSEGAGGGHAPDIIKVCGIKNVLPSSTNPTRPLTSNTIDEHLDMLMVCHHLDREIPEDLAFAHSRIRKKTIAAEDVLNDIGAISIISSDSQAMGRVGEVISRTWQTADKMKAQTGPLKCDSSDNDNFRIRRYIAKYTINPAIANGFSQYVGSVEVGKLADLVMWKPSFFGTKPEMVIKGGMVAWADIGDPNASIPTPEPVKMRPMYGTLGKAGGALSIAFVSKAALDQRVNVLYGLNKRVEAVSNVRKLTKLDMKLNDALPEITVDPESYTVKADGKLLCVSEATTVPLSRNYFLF
The subject of a further assay is Glycine max. Briefly: Inhibition of soybean LOX using linoleic acid as substrate at 0.5 mM preincubated for 10 mins followed by substrate addition measured after 6 mins by spectrophotometric analysis.

Sequence of Urease (Canavalia ensiformis) (P07374 whole entry, looked up): as the sequence (P07374 whole entry) above

`Fc1ccc(-n2c(-c3c(-c4ccc(C(F)(F)F)cc4)[nH]c4ccccc34)nc(-c3ccccc3)c2-c2ccccc2)cc1`: the IC50 (usually the point on the concentration scale where inhibition reaches its midpoint) was 106 µM in assay [1] and 0.16 µM at Urease. Also, the inhibition (in general, the relative decrease from the control value, in per cent) in assay [2] came out at 85.2%; in the assay on Glycine max, 80.2%.
The matching figures for `Fc1ccc(-n2c(-c3c(-c4ccc(Cl)cc4)[nH]c4ccccc34)nc(-c3ccccc3)c2-c2ccccc2)cc1`: 89 µM, 0.44 µM, 85.6% and 84.5%.
Turning to `COc1ccc(-n2c(-c3c(-c4ccccc4)[nH]c4ccc(Br)cc34)nc(-c3ccccc3)c2-c2ccccc2)cc1`, the figures for the IC50 (in assay [1]; on Urease) were 265 µM and 4.62 µM, respectively. The figures for the inhibition (in assay [2]; in the assay with Glycine max) were 88.7% and 57.5%, respectively.
The matching figures for `Brc1ccc(-c2[nH]c3ccccc3c2-c2nc(-c3ccccc3)c(-c3ccccc3)n2-c2ccc(Br)cc2)cc1`: 173 µM, 11.3 µM, 87.8% and 61.1%.
Take `O=c1cc(-c2ccccc2)oc2cc(O)c(O)c(O)c12` [BAICALEIN]: 22.4 µM corresponded to half-maximal inhibition in assay [1] (IC50). In the assay with Glycine max, the inhibition was 93.7%.
`Brc1ccc2[nH]c(-c3ccccc3)c(-c3nc(-c4ccccc4)c(-c4ccccc4)n3-c3ccccc3)c2c1` displayed an IC50 in assay [1] of 134 µM. Further, in the assay on Glycine max, the inhibition was 97.2%.
In the case of `FC(F)(F)c1ccc(-c2[nH]c3ccccc3c2-c2nc(-c3ccccc3)c(-c3ccccc3)n2-c2ccc(Cl)cc2)cc1`, the IC50 in assay [1] stood at 215 µM; at Urease it was 4.75 µM. Besides, the inhibition in assay [2] came out at 70.3%; in the assay with Glycine max it was 62.1%.
For `Clc1ccc(-n2c(-c3c(-c4ccccc4)[nH]c4ccc(Br)cc34)nc(-c3ccccc3)c2-c2ccccc2)cc1`, the concentration for half-maximal inhibition (IC50) in assay [1] stood at 101 µM; on Urease, 4.66 µM. Besides, the inhibition in assay [2] is 87.8%; in the assay on Glycine max, 83.2%.
Turning to `Cc1ccc(-n2c(-c3c(-c4ccc(C(F)(F)F)cc4)[nH]c4ccccc34)nc(-c3ccccc3)c2-c2ccccc2)cc1`, the IC50 in assay [1] was determined as 83 µM; at Urease, 0.12 µM. Moreover, the inhibition was 79.7% in assay [2] and 90.3% with Glycine max.
On the same counts, the results for `Fc1ccc(-n2c(-c3c(-c4ccc(Br)cc4)[nH]c4ccccc34)nc(-c3ccccc3)c2-c2ccccc2)cc1` are 162 µM, 12.1 µM, 86.7% and 87.8%.
In the case of `COc1ccc(-n2c(-c3c(-c4ccc(Br)cc4)[nH]c4ccccc34)nc(-c3ccccc3)c2-c2ccccc2)cc1`, the IC50 came out at 206 µM in assay [1] and 29.1 µM at Urease. Also, the values for the inhibition (in assay [2]; in the assay with Glycine max) were 85.2% and 61.7%, respectively.
In assay [1], `FC(F)(F)c1ccc(-c2[nH]c3ccccc3c2-c2nc(-c3ccccc3)c(-c3ccccc3)n2-c2ccccc2)cc1` returned a half-inhibitory concentration (IC50) of 117 µM. In the assay with Glycine max, this compound showed an inhibition of 86.2%.
Regarding `Brc1ccc(-c2[nH]c3ccccc3c2-c2nc(-c3ccccc3)c(-c3ccccc3)n2-c2ccccc2)cc1`, the half-inhibitory concentration (IC50) is 197 µM in assay [1] and 4.81 µM on Urease. The values for the inhibition (in assay [2]; in the assay with Glycine max) were 89.4% and 59.3%, respectively.
Turning to `Brc1ccc(-n2c(-c3c(-c4ccccc4)[nH]c4ccc(Br)cc34)nc(-c3ccccc3)c2-c2ccccc2)cc1`, the half-maximal inhibitory concentration (IC50) in assay [1] was found to be 178 µM; at Urease it was 0.15 µM. The inhibition in assay [2] is 93.2%; in the assay with Glycine max it was 78.5%.
`Cc1ccc(-n2c(-c3c(-c4ccccc4)[nH]c4ccc(Br)cc34)nc(-c3ccccc3)c2-c2ccccc2)cc1` showed a half-maximal inhibitory concentration (IC50) in assay [1] of 143 µM. Also, in the assay on Glycine max, the inhibition was 81.4%.
Take `Clc1ccc(-c2[nH]c3ccccc3c2-c2nc(-c3ccccc3)c(-c3ccccc3)n2-c2ccccc2)cc1`: the IC50 in assay [1] was found to be 276 µM; on Urease it was 0.37 µM. Besides, the inhibition in assay [2] is 80.3%; in the assay on Glycine max, 58.3%.
